In EPA's ToxValDB 9.5 (doi:10.2903/j.efsa.2010.1526):
In brackets after ≈: the same amount, converted by molar mass.

What was measured:
Oncorhynchus mykiss = conditions: acute; duration: 96 hours; mortality
Rattus norvegicus = conditions: oral
Canidae = conditions: chronic; duration: 1 years; oral; Dog Other; clinical chemistry
Hypoaspis aculeifer = conditions: chronic/long-term; duration: 14 days
Apis mellifera = conditions: acute; duration: 48 hours; oral; unspecified; mortality
Bibionidae = conditions: chronic/long-term; duration: 17 days
Tagia sp. = conditions: acute; duration: 14 days; mortality

## C=CCOC(Cn1ccnc1)c1ccc(Cl)cc1Cl (stereo not drawn) [Imazalil]
Oncorhynchus mykiss
  LC50: 1.48 µg/mL (≈ 4.98 µM)
Rattus norvegicus; acute, mortality
  LD50: 227 mg/kg-day
Rattus norvegicus; chronic, duration: 6 months, clinical chemistry
  NOAEL: 5 mg/kg-day
Canidae
  NOAEL: 2.5 mg/kg-day
Hypoaspis aculeifer
  NOEC: 107 mg/kg
Apis mellifera
  LD50: > 35.1 µg/piece
Oryctolagus sp.; developmental, development
  NOAEL: 5 mg/kg-day
Oryctolagus sp.; reproduction developmental, reproduction
  NOEL: 20 mg/kg-day
Bird; acute, oral, unspecified, mortality
  LD50: 510 mg/kg-day
Bird; chronic/long-term
  NOEC: 24 mg/kg-day
Bird; short-term, oral, feed, mortality
  LC50: > 516 mg/kg-day
Bibionidae
  NOEC: 0.181 mg/L
Tagia sp.
  LC50: 541 mg/kg
